From US11793849B2, “Method of Chinese herbal medicine extract used for treating multiple diseases caused by drug resistant bacteria infection” (priority 2016, dated 2023)
Like-named read-outs stand apart in the source and are kept apart here.

Tested on: MDRAB
Test: Checkerboard assay (combined-use MIC, FIC)
Format: cell-based, Acinetobacter baumannii
Conditions: for FIC, all strains / MIC50 of the antibiotic after combined use / MIC90 of the antibiotic after combined use / reduction of the antibiotic's MIC50 vs single use / reduction of the antibiotic's MIC90 vs single use / share of strains with FIC ≤ 0.5: 20 MDRABs; for MIC: Acinetobacter baumannii, read-out: single-use MIC
Method in brief: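 Checkerboard combinations of S20b and antibiotic run per NCCLS method against ESBL E. coli, MDR A. baumannii and MDR P. aeruginosa.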

[1] = antibiotic with 60% ethanol extract
[2] = antibiotic with 95% ethanol extract
[3] = antibiotic with EA (10% ethanol extract)
[4] = antibiotic with EA (water extract)

C[C@H]1COc2c(N3CCN(C)CC3)c(F)cc3c(=O)c(C(=O)O)cn1c23 [LVX, Levofloxacin]
2 µg/mL: MIC50 of the antibiotic after combined use [4] | combined-use MIC (strain A3, EA (10% ethanol extract) + LVX combined) | combined-use MIC (strain A3, EA (P. clypearia 95% ethanol extract) combined with LVX) | combined-use MIC (strain A3, EA (water extract) with LVX) | combined-use MIC (strain A5, EA (10% ethanol extract) + LVX combined) | combined-use MIC (strain A8, EA (10% ethanol extract) + LVX combined) | combined-use MIC (strain A8, EA (P. clypearia 95% ethanol extract) combined with LVX) | combined-use MIC (strain A10, EA (P. clypearia 95% ethanol extract) combined with LVX) | combined-use MIC (strain A11, EA (10% ethanol extract) + LVX combined) | combined-use MIC (strain A11, EA (water extract) with LVX) | combined-use MIC (strain A12, EA (water extract) with LVX) | combined-use MIC (strain A13, EA (P. clypearia 95% ethanol extract) combined with LVX) | combined-use MIC (strain A15, EA (P. clypearia 95% ethanol extract) combined with LVX) | combined-use MIC (strain A16, EA (water extract) with LVX) | combined-use MIC (strain A19, EA (10% ethanol extract) + LVX combined) | combined-use MIC (strain AS, EA (P. clypearia 95% ethanol extract) combined with LVX)
75%: reduction of the antibiotic's MIC90 vs single use [1] | reduction of the antibiotic's MIC90 vs single use [2] | reduction of the antibiotic's MIC90 vs single use [3] | reduction of the antibiotic's MIC50 vs single use [4] | reduction of the antibiotic's MIC90 vs single use [4]
≤ 2: FIC, all strains [1] | FIC, all strains [2] | FIC, all strains [3] | FIC, all strains [4]
50%: reduction of the antibiotic's MIC50 vs single use [1] | reduction of the antibiotic's MIC50 vs single use [2] | reduction of the antibiotic's MIC50 vs single use [3]
0.25 µg/mL: combined-use MIC (strain A1, EA (P. clypearia 95% ethanol extract) combined with LVX)
32 µg/mL: MIC (strain A10, EA=10% ethanol extract) | MIC (strain A10, EA=60% ethanol extract) | MIC (strain A12, EA=10% ethanol extract) | MIC (strain A12, EA=60% ethanol extract) | MIC (strain A13, EA=10% ethanol extract) | MIC (strain A13, EA=60% ethanol extract) | MIC (strain A15, EA=10% ethanol extract) | MIC (strain A15, EA=60% ethanol extract)
25%: share of strains with FIC ≤ 0.5 [3]
16 µg/mL: MIC (strain A2, EA=10% ethanol extract) | MIC (strain A2, EA=60% ethanol extract) | MIC (strain A3, EA=10% ethanol extract) | MIC (strain A3, EA=60% ethanol extract) | MIC (strain A14, EA=10% ethanol extract) | MIC (strain A14, EA=60% ethanol extract) | MIC (strain A17, EA=10% ethanol extract) | MIC (strain A17, EA=60% ethanol extract) | MIC (strain A19, EA=10% ethanol extract) | MIC (strain A19, EA=60% ethanol extract) | MIC (strain A20, EA=10% ethanol extract) | MIC (strain A20, EA=60% ethanol extract) | combined-use MIC (strain A2, EA (60% ethanol extract) + LVX combined) | combined-use MIC (strain A2, EA (water extract) with LVX) | combined-use MIC (strain A15, EA (10% ethanol extract) + LVX combined)
0.5 µg/mL: MIC (strain A1, EA=10% ethanol extract) | MIC (strain A1, EA=60% ethanol extract) | MIC (strain A4, EA=10% ethanol extract) | MIC (strain A4, EA=60% ethanol extract)
1 µg/mL: combined-use MIC (strain A5, EA (water extract) with LVX) | combined-use MIC (strain A12, EA (60% ethanol extract) + LVX combined) | combined-use MIC (strain A12, EA (P. clypearia 95% ethanol extract) combined with LVX) | combined-use MIC (strain A18, EA (water extract) with LVX)
4 µg/mL: MIC50 of the antibiotic after combined use [1] | MIC50 of the antibiotic after combined use [2] | MIC50 of the antibiotic after combined use [3] | MIC (strain A5, EA=10% ethanol extract) | MIC (strain A5, EA=60% ethanol extract) | MIC (strain A8, EA=10% ethanol extract) | MIC (strain A8, EA=60% ethanol extract) | MIC (strain A9, EA=10% ethanol extract) | MIC (strain A9, EA=60% ethanol extract) | MIC (strain A11, EA=10% ethanol extract) | MIC (strain A11, EA=60% ethanol extract) | combined-use MIC (strain A5, EA (60% ethanol extract) + LVX combined) | combined-use MIC (strain A6, EA (10% ethanol extract) + LVX combined) | combined-use MIC (strain A6, EA (60% ethanol extract) + LVX combined) | combined-use MIC (strain A6, EA (P. clypearia 95% ethanol extract) combined with LVX) | combined-use MIC (strain A6, EA (water extract) with LVX) | combined-use MIC (strain A7, EA (10% ethanol extract) + LVX combined) | combined-use MIC (strain A7, EA (60% ethanol extract) + LVX combined) | combined-use MIC (strain A7, EA (P. clypearia 95% ethanol extract) combined with LVX) | combined-use MIC (strain A7, EA (water extract) with LVX) | combined-use MIC (strain A8, EA (60% ethanol extract) + LVX combined) | combined-use MIC (strain A8, EA (water extract) with LVX) | combined-use MIC (strain A11, EA (60% ethanol extract) + LVX combined) | combined-use MIC (strain A11, EA (P. clypearia 95% ethanol extract) combined with LVX) | combined-use MIC (strain A16, EA (10% ethanol extract) + LVX combined) | combined-use MIC (strain A16, EA (60% ethanol extract) + LVX combined) | combined-use MIC (strain A16, EA (P. clypearia 95% ethanol extract) combined with LVX) | combined-use MIC (strain A17, EA (10% ethanol extract) + LVX combined) | combined-use MIC (strain A17, EA (60% ethanol extract) + LVX combined) | combined-use MIC (strain A17, EA (P. clypearia 95% ethanol extract) combined with LVX) | combined-use MIC (strain A18, EA (10% ethanol extract) + LVX combined) | combined-use MIC (strain A18, EA (60% ethanol extract) + LVX combined) | combined-use MIC (strain A18, EA (P. clypearia 95% ethanol extract) combined with LVX) | combined-use MIC (strain A20, EA (10% ethanol extract) + LVX combined) | combined-use MIC (strain A20, EA (water extract) with LVX)
20%: share of strains with FIC ≤ 0.5 [2]
0.0625 µg/mL: combined-use MIC (strain A1, EA (10% ethanol extract) + LVX combined) | combined-use MIC (strain A1, EA (60% ethanol extract) + LVX combined) | combined-use MIC (strain A1, EA (water extract) with LVX) | combined-use MIC (strain A3, EA (60% ethanol extract) + LVX combined) | combined-use MIC (strain A4, EA (10% ethanol extract) + LVX combined) | combined-use MIC (strain A4, EA (60% ethanol extract) + LVX combined) | combined-use MIC (strain A4, EA (P. clypearia 95% ethanol extract) combined with LVX) | combined-use MIC (strain A4, EA (water extract) with LVX) | combined-use MIC (strain A9, EA (10% ethanol extract) + LVX combined) | combined-use MIC (strain A9, EA (60% ethanol extract) + LVX combined) | combined-use MIC (strain A9, EA (P. clypearia 95% ethanol extract) combined with LVX) | combined-use MIC (strain A9, EA (water extract) with LVX) | combined-use MIC (strain A10, EA (60% ethanol extract) + LVX combined) | combined-use MIC (strain A13, EA (60% ethanol extract) + LVX combined) | combined-use MIC (strain A15, EA (60% ethanol extract) + LVX combined) | combined-use MIC (strain A15, EA (water extract) with LVX)
8 µg/mL: MIC90 of the antibiotic after combined use [1] | MIC90 of the antibiotic after combined use [2] | MIC90 of the antibiotic after combined use [3] | MIC90 of the antibiotic after combined use [4] | MIC (strain A6, EA=10% ethanol extract) | MIC (strain A6, EA=60% ethanol extract) | MIC (strain A7, EA=10% ethanol extract) | MIC (strain A7, EA=60% ethanol extract) | MIC (strain A16, EA=10% ethanol extract) | MIC (strain A16, EA=60% ethanol extract) | MIC (strain A18, EA=10% ethanol extract) | MIC (strain A18, EA=60% ethanol extract) | combined-use MIC (strain A2, EA (10% ethanol extract) + LVX combined) | combined-use MIC (strain A2, EA (P. clypearia 95% ethanol extract) combined with LVX) | combined-use MIC (strain A10, EA (10% ethanol extract) + LVX combined) | combined-use MIC (strain A10, EA (water extract) with LVX) | combined-use MIC (strain A12, EA (10% ethanol extract) + LVX combined) | combined-use MIC (strain A13, EA (10% ethanol extract) + LVX combined) | combined-use MIC (strain A13, EA (water extract) with LVX) | combined-use MIC (strain A14, EA (10% ethanol extract) + LVX combined) | combined-use MIC (strain A14, EA (60% ethanol extract) + LVX combined) | combined-use MIC (strain A14, EA (P. clypearia 95% ethanol extract) combined with LVX) | combined-use MIC (strain A14, EA (water extract) with LVX) | combined-use MIC (strain A17, EA (water extract) with LVX) | combined-use MIC (strain A19, EA (60% ethanol extract) + LVX combined) | combined-use MIC (strain A19, EA (P. clypearia 95% ethanol extract) combined with LVX) | combined-use MIC (strain A19, EA (water extract) with LVX) | combined-use MIC (strain A20, EA (60% ethanol extract) + LVX combined) | combined-use MIC (strain A20, EA (P. clypearia 95% ethanol extract) combined with LVX)
35%: share of strains with FIC ≤ 0.5 [4]
5%: share of strains with FIC ≤ 0.5 [1]
